Data taken from patent publication US4866057A, “4-substituted 10-cyanomethylenepyrrolo[4,3-e]-benzazepines” (BASF Aktiengesellschaft, priority 1987, dated 1989).
pKi: −log10 of the molar value. Like-named read-outs stand apart in the source and are kept apart here.

Key:
[1] = tested on: orientation hypermotility; assay: Sedative action (orientation hypermotility, mouse); assay type: in vivo, female NMRI mice; details: oral; for ED50: 0.5 h, 50% decrease in orientation hypermotility vs control, measured from 30 min after dosing for 30 min, read-out: Sedative action mouse ED 50; for sedative action compared with clozapine: in words, action of reference clozapine
Experimental: 4 to 8 groups each comprising 3 female NMRI mice receive the substances by oral administration. The orientation hypermotility induced by a new environment is determined photoelectrically 30 min after the administration of the substance for a period of 30 min.
The ED50 is determined as the dose which brings about a decrease in the orientation hypermotility of 50% compared with placebo-treated control animals.

[2] = tested on: L-5-Hydroxytryptamine (L-5-HTP); assay: L-5-HTP antagonism (serotonin antagonism); assay type: in vivo, rats; details: oral, rat; for ED50: 1 h before L-5-HTP (316 mg/kg i.p.), 50% mean reduction in score, read-out: Antiserotoninergic action rat ED; for antiserotoninergic action compared with clozapine: in words, action of reference clozapine
Experimental: 2. L-5-HTP antagonism (serotonin antagonism)
L-5-Hydroxytryptamine (L-5-HTP), a serotonin prodrug, causes in rats (316 mg/kg i.p.) a state of agitation which is characterized by signs such as head-shaking, tremor and movements of the forepaws. The animals are observed for 1 h after administration of L-5-HTP, and the signs are scored every 10 min. The test substances are administered orally 1 h before L-5-HTP; n/dose=6. The ED50 is calculated as the dose which brings about a mean reduction in the score of a control group by 50%.

physostigmine = assay: Anticholinergic action (protection from lethal physostigmine); assay type: in vivo, female NMRI mice; details: oral, mouse, 30 min before physostigmine 0.825 mg/kg s.c.; protects 50% from death; read-out: Anticholinergic mouse ED 50
Experimental: 3. Anticholinergic action
Groups of 10 female NMRI mice receive physostigmine in a lethal dose (0.825 mg/kg) subcutaneously. The test substances are administered orally 30 min before the physostigmine administration. The ED50 is determined as the dose of substance which protects 50% of the animals from death due to physostigmine.

dopamine D1 receptor = molecular target: T1, dopamine D1 receptor (Bos taurus, UniProt Q95136); assay: Affinity to dopamine D1 receptor, competitive assay, 3H-SCH 23390; assay type: binding, bovine
T1 construct: bovine nucleus caudatus membranes; from tissue; host or cells: bovine caudate nucleus membranes
Experimental: (§1) 4. In vitro determination of the affinity to dopamine D1 and D2 receptors by means of competitive assays
(§2) The non-specific binding was determined using 10 μM (+)-butaclamol or using 1 μM haloperidol. After incubation at 30° C. for 60 min, the mixtures were filtered through glass fiber filters (GF/B, Whatman) and the amount of radioligand retained on the filter was determined by liquid scintillation measurement.

dopamine D2 receptor = molecular target: T2, dopamine D2 receptor (Bos taurus, UniProt P20288); assay: Affinity to dopamine D2 receptor, competitive assay, 3H-spiperon; assay type: binding, bovine
T2 construct: bovine nucleus caudatus membranes; from tissue; host or cells: bovine caudate nucleus membranes
Experimental: as §1, §2

[3] = bovine nucleus caudatus membranes, pH 7.4, 30° C., 60 min, 1 nM radioligand, read-out: Affinity to D1 receptor, Inhibition of 3H-SCH 23 390 binding, Ki
[4] = bovine nucleus caudatus membranes, pH 7.4, 30° C., 60 min, 0.2 nM radioligand, read-out: Affinity to D2 receptor, Inhibition of 3H-spiperon binding, Ki

T2 sequence (P20288 whole entry): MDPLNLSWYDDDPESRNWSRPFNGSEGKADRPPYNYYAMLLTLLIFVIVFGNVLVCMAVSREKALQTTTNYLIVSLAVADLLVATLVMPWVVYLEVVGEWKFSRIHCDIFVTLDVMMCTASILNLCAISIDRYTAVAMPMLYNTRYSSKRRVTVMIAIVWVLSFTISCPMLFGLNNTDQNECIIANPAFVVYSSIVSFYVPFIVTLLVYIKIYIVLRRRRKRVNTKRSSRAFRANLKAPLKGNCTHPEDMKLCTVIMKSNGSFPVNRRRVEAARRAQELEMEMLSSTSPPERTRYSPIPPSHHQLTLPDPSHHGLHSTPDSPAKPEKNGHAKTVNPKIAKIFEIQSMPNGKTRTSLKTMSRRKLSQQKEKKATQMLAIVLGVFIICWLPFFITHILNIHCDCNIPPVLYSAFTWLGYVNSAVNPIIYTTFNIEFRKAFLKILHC
T1 sequence (Q95136 whole entry): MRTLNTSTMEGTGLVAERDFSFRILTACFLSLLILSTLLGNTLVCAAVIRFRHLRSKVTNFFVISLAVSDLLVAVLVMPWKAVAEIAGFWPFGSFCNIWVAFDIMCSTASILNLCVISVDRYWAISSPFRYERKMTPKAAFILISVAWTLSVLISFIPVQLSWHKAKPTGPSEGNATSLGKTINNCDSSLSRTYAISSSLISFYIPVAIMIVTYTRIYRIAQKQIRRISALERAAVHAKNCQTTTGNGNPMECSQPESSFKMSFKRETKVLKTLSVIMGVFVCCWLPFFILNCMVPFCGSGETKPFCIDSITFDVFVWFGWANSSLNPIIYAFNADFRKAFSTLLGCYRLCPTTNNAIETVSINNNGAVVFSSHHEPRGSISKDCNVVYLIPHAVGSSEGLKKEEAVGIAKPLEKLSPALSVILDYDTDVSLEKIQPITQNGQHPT

CN1CCN(C2=Nc3cc(Cl)ccc3Nc3ccccc32)CC1 [Clozapine, clozapine, reference compound]
ED50 [1]: 3.8 mg/kg | ED50 [2]: 6.3 mg/kg

CN1CCN(C2=Nc3cc(Cl)ccc3C(=CC#N)c3cn(Cc4ccccc4)cc32)CC1 [Example 11, (E),(Z)-7-Chloro-2-benzyl-10-cyanomethylene-4-(4-methyl-1-piperazinyl)pyrrolo[4,3-e]benzazepine]
ED50 [1]: 35 mg/kg | ED50 (physostigmine): > 100 mg/kg | pKi (dopamine D1 receptor; [3]): 7.89 | pKi (dopamine D2 receptor; [4]): ~6.00

CN1CCN(C2=Nc3ccccc3C(=CC#N)c3cn(Cc4ccccc4)cc32)CC1 [Example 9, (E),(Z)-10-Cyanomethylene-2-benzyl-4-(4-methyl-1-piperazinyl)pyrrolo[4,3-e]benzazepine]
ED50 [1]: 29.8 mg/kg | ED50 [2]: 46.4 mg/kg | ED50 (physostigmine): > 46.4 mg/kg | pKi (dopamine D1 receptor; [3]): 8.47 | pKi (dopamine D2 receptor; [4]): ~6.00

CN1CCN(C2=Nc3ccccc3/C(=C/C#N)c3cn(C)cc32)CC1 [Example 1a, 10-Cyanomethylene-2-methyl-4-(4-methyl-1-piperazinyl)pyrrolo[4,3-e]benzazepine]
ED50 [1]: 2.96 mg/kg | sedative action compared with clozapine [1]: reached or exceeded | ED50 [2]: 1.18 mg/kg | antiserotoninergic action compared with clozapine [2]: reached or exceeded | ED50 (physostigmine): > 21.5 mg/kg | pKi (dopamine D1 receptor): 7.98 | pKi (dopamine D2 receptor): ~5.70

CN1CCN(C2=Nc3cc(Cl)ccc3/C(=C/C#N)c3cn(C)cc32)CC1 [Example 3a, (E)-7-Chloro-10-cyanomethylene-2-methyl-4-(4-methyl-1-piperazinyl)pyrrolo[4,3-e]benzazepine]
ED50 [1]: 0.67 mg/kg | ED50 [2]: 0.29 mg/kg

CN1CCN(C2=Nc3cc(Cl)ccc3C(=CC#N)c3cn(C)cc32)CC1 [Example 3, (E),(Z)-7-Chloro-10-cyanomethylene-2-methyl-4-(4-methyl-1-piperazinyl)pyrrolo[4,3-e]benzazepine]
ED50 [1]: 0.82 mg/kg | sedative action compared with clozapine [1]: reached or exceeded | ED50 [2]: 0.2 mg/kg | antiserotoninergic action compared with clozapine [2]: reached or exceeded | ED50 (physostigmine): 17.5 mg/kg | pKi (dopamine D1 receptor; [3]): 7.70 | pKi (dopamine D2 receptor; [4]): ~6.00

CCN1CCN(C2=Nc3ccccc3C(=CC#N)c3cn(C)cc32)CC1 [Example 12, (E),(Z)-10-Cyanomethylene-2-methyl-4-(4-ethyl-1-piperazinyl)pyrrolo[4,3-e]benzazepine]
ED50 [1]: 4.7 mg/kg | ED50 [2]: 3.3 mg/kg | antiserotoninergic action compared with clozapine [2]: reached or exceeded | ED50 (physostigmine): 16.7 mg/kg | pKi (dopamine D1 receptor; [3]): 7.68 | pKi (dopamine D2 receptor; [4]): ~5.70
